Tests used:
[1] = tested on: Pseudomonas aeruginosa; assay: suspension test; format: cell-based; details: after 30 mins
Procedure: The compositions were tested for antimicrobial activity using the suspension test in Example 3 outlined at room temperature against the following organisms:
The anti-microbial activity of a-linolenic acid and terpinen-4-ol separately and in combination were tested using the suspension test as outlined in Example 3 above.

[2] = tested on: Escherichia coli ATCC 8739; details: 48 hours at 37° C.
[3] = tested on: Salmonella cholerae-suis ATCC 10708; assay: Minimum Inhibitory Concentration Test (broth dilution, turbidity); format: cell-based; details: 48 hours at 37° C.
[4] = tested on: Staphylococcus aureus ATCC 6538; details: 48 hours at 37° C.
[5] = tested on: Streptococcus pyogenes University of Melbourne MDU; details: 48 hours at 37° C.
[6] = tested on: Morazella Catarrhalis; details: 48 hours at 37° C.
[7] = tested on: Methicillin Resistant Staphylococcus Wild Strain; details: 48 hours at 37° C.
[8] = dilution 1:100 in Tryptone Soya broth
[9] = dilution 1:200 in Tryptone Soya broth
[10] = dilution 1:400 in Tryptone Soya broth
[11] = dilution 1:800 in Tryptone Soya broth
[12] = dilution 1:1600 in Tryptone Soya broth
[13] = dilution 1:3200 in Tryptone Soya broth
[14] = dilution 1:6400 in Tryptone Soya broth
[15] = dilution 1:12800 in Tryptone Soya broth
[16] = dilution 1:25600 in Tryptone Soya broth
[17] = dilution 1:51200 in Tryptone Soya broth
[18] = dilution 1:102400 in Tryptone Soya broth

Question: `CC1=CCC(O)(C(C)C)CC1` (stereo not drawn) [terpinen-4-ol] was tested. Which “reduction in the survival of P. aeruginosa” value [1] did it give?
Answer: 1 log10

Question: `CC/C=C\C/C=C\C/C=C\CCCCCCCC(=O)O` [α-linolenic acid] was tested. Which “Growth (turbidity) at Dilution 1:100” value [2, 8] did it give?
Answer: +

Question: And the “Growth (turbidity) at Dilution 1:200” value [2, 9]?
Answer: +

Question: And the “Growth (turbidity) at Dilution 1:400” value [2, 10]?
Answer: +

Question: And the “Growth (turbidity) at Dilution 1:800” value [2, 11]?
Answer: +

Question: And the “Growth (turbidity) at Dilution 1:1600” value [2, 12]?
Answer: +

Question: What about the “Growth (turbidity) at Dilution 1:3200” value [2, 13] of the same molecule?
Answer: +

Question: What about the “Growth (turbidity) at Dilution 1:6400” value [2, 14] of the same molecule?
Answer: +

Question: And the “Growth (turbidity) at Dilution 1:12800” value [2, 15]?
Answer: +

Question: What about the “Growth (turbidity) at Dilution 1:25600” value [2, 16] of the same molecule?
Answer: +

Question: What about the “Growth (turbidity) at Dilution 1:51200” value [2, 17] of the same molecule?
Answer: +

Question: And the “Growth (turbidity) at Dilution 1:102400” value [2, 18]?
Answer: +

Question: And the “reduction in the survival of P. aeruginosa” value [1]?
Answer: 1 log10

Question: And the “Growth (turbidity) at Dilution 1:100” value [3, 8]?
Answer: −

Question: And the “Growth (turbidity) at Dilution 1:200” value [3, 9]?
Answer: −

Question: And the “Growth (turbidity) at Dilution 1:400” value [3, 10]?
Answer: +

Question: What about the “Growth (turbidity) at Dilution 1:800” value [3, 11] of the same molecule?
Answer: +

Question: What about the “Growth (turbidity) at Dilution 1:1600” value [3, 12] of the same molecule?
Answer: +

Question: What about the “Growth (turbidity) at Dilution 1:3200” value [3, 13] of the same molecule?
Answer: +

Question: What about the “Growth (turbidity) at Dilution 1:6400” value [3, 14] of the same molecule?
Answer: +

Question: What about the “Growth (turbidity) at Dilution 1:12800” value [3, 15] of the same molecule?
Answer: +

Question: And the “Growth (turbidity) at Dilution 1:25600” value [3, 16]?
Answer: +

Question: What about the “Growth (turbidity) at Dilution 1:51200” value [3, 17] of the same molecule?
Answer: +

Question: What about the “Growth (turbidity) at Dilution 1:102400” value [3, 18] of the same molecule?
Answer: +

Question: And the “Growth (turbidity) at Dilution 1:100” value [4, 8]?
Answer: −

Question: And the “Growth (turbidity) at Dilution 1:200” value [4, 9]?
Answer: −

Question: And the “Growth (turbidity) at Dilution 1:400” value [4, 10]?
Answer: −

Question: And the “Growth (turbidity) at Dilution 1:800” value [4, 11]?
Answer: −

Question: And the “Growth (turbidity) at Dilution 1:1600” value [4, 12]?
Answer: −

Question: And the “Growth (turbidity) at Dilution 1:3200” value [4, 13]?
Answer: −

Question: What about the “Growth (turbidity) at Dilution 1:6400” value [4, 14] of the same molecule?
Answer: −

Question: And the “Growth (turbidity) at Dilution 1:12800” value [4, 15]?
Answer: −

Question: What about the “Growth (turbidity) at Dilution 1:25600” value [4, 16] of the same molecule?
Answer: −

Question: What about the “Growth (turbidity) at Dilution 1:102400” value [4, 18] of the same molecule?
Answer: +

Question: What about the “Growth (turbidity) at Dilution 1:100” value [5, 8] of the same molecule?
Answer: −

Question: What about the “Growth (turbidity) at Dilution 1:200” value [5, 9] of the same molecule?
Answer: −

Question: What about the “Growth (turbidity) at Dilution 1:400” value [5, 10] of the same molecule?
Answer: −

Question: And the “Growth (turbidity) at Dilution 1:800” value [5, 11]?
Answer: −

Question: What about the “Growth (turbidity) at Dilution 1:1600” value [5, 12] of the same molecule?
Answer: −

Question: What about the “Growth (turbidity) at Dilution 1:3200” value [5, 13] of the same molecule?
Answer: −

Question: And the “Growth (turbidity) at Dilution 1:6400” value [5, 14]?
Answer: −

Question: And the “Growth (turbidity) at Dilution 1:12800” value [5, 15]?
Answer: −

Question: What about the “Growth (turbidity) at Dilution 1:51200” value [5, 17] of the same molecule?
Answer: +

Question: And the “Growth (turbidity) at Dilution 1:102400” value [5, 18]?
Answer: +

Question: What about the “Growth (turbidity) at Dilution 1:100” value [6, 8] of the same molecule?
Answer: −

Question: What about the “Growth (turbidity) at Dilution 1:200” value [6, 9] of the same molecule?
Answer: −

Question: What about the “Growth (turbidity) at Dilution 1:400” value [6, 10] of the same molecule?
Answer: −

Question: And the “Growth (turbidity) at Dilution 1:800” value [6, 11]?
Answer: −

Question: What about the “Growth (turbidity) at Dilution 1:1600” value [6, 12] of the same molecule?
Answer: −

Question: And the “Growth (turbidity) at Dilution 1:3200” value [6, 13]?
Answer: −

Question: And the “Growth (turbidity) at Dilution 1:6400” value [6, 14]?
Answer: −

Question: And the “Growth (turbidity) at Dilution 1:12800” value [6, 15]?
Answer: +

Question: What about the “Growth (turbidity) at Dilution 1:25600” value [6, 16] of the same molecule?
Answer: +

Question: And the “Growth (turbidity) at Dilution 1:51200” value [6, 17]?
Answer: +

Question: And the “Growth (turbidity) at Dilution 1:102400” value [6, 18]?
Answer: +

Question: And the “Growth (turbidity) at Dilution 1:100” value [7, 8]?
Answer: −

Question: And the “Growth (turbidity) at Dilution 1:200” value [7, 9]?
Answer: −

Question: And the “Growth (turbidity) at Dilution 1:400” value [7, 10]?
Answer: −

Question: What about the “Growth (turbidity) at Dilution 1:800” value [7, 11] of the same molecule?
Answer: −

Question: And the “Growth (turbidity) at Dilution 1:1600” value [7, 12]?
Answer: −

Question: What about the “Growth (turbidity) at Dilution 1:3200” value [7, 13] of the same molecule?
Answer: −

Question: And the “Growth (turbidity) at Dilution 1:6400” value [7, 14]?
Answer: −

Question: What about the “Growth (turbidity) at Dilution 1:12800” value [7, 15] of the same molecule?
Answer: −

Question: What about the “Growth (turbidity) at Dilution 1:25600” value [7, 16] of the same molecule?
Answer: −

Question: What about the “Growth (turbidity) at Dilution 1:51200” value [7, 17] of the same molecule?
Answer: −

Question: And the “Growth (turbidity) at Dilution 1:102400” value [7, 18]?
Answer: +
